pIC50: −log10 of the molar value. Like-named read-outs stand apart in the source and are kept apart here. Marks after values point to notes of the source that are not given here.
Experiments:
[1] = system: human sebocytes; assay: Inhibition of sebocyte lipogenesis (14C-acetate label remaining in sebocytes); format: cell-based; conditions: for pIC50: read-out: IC 50 (concentration which provides a 50% sebum suppression relative to the control)
[2] = Light absorbency (color) at 340-500 nm, Spectramax 340 spectrophotometer; format: physicochemical; conditions: from absorbency values at 340-500 nm
[3] = Homo sapiens, 20 hour incubation, 96 well plate
[4] = 20 hour incubation, 96 well plate

With `CC(C)CCCC(C)CCCC(C)CCO` (centres unmarked) [Compound 6, 3,7,11-trimethyl 1-dodecanol] the pIC50 [1, 3] was < 4.00.
In the case of `CC(C)CCCC(C)CCCC(C)CCOCCC(=O)O` (centres unmarked) [Compound 7, 3,7,11-trimethyl 1-dodecanol carboxyethylate], the pIC50 [1, 3] was 5.00 and the “activity as sebum suppressant relative to the branched alcohol from which it is derived” value ([1]; ratio of IC50 values of Table 3) was “at least 10 times”.
Compound `O=S1(=O)OC(c2ccc(O)cc2)(c2ccc(O)cc2)c2ccccc21` [Phenol Red] has an activity at 100 µM ([1]; Homo sapiens, 20 h, read-out: radioactive label remaining in the sebocytes, % of Control) of 46.3%.
In the case of “C13 isoalcohol carboxyethylate (TDCE) [Compound 1]”, the “radioactive label remaining in the sebocytes, % of Control” value ([1]; 1 µM) was 48.7* %, the “radioactive label remaining in the sebocytes, % of Control” value ([1]; 10 µM) was 34.6* % and the “radioactive label remaining in the sebocytes, % of Control” value ([1]; 100 µM) was 11.9* %. The pIC50 [1, 4] was 5.30 and the “color compared with TDCM” value [2] was “lighter in color”.
With C13 isoalcohol glycerol [Compound 5] the pIC50 [1, 4] was < 4.00.
In the case of “C13 isoalcohol propionitrile [Compound 2]”, the pIC50 [1, 4] was < 4.00.
For Iso-tridecyl carboxymethylate [TDCM], the “radioactive label remaining in the sebocytes, % of Control” value ([1]; 1 μM test agent, 20 hour incubation, 96 well plate, lower = greater inhibition of lipogenesis) was 84.8* %, the “radioactive label remaining in the sebocytes, % of Control” value ([1]; 10 μM test agent, 20 hour incubation, 96 well plate, lower = greater inhibition of lipogenesis) was 43.4* % and the “radioactive label remaining in the sebocytes, % of Control” value ([1]; 100 μM test agent, 20 hour incubation, 96 well plate, lower = greater inhibition of lipogenesis) was 22.8* %.
